From ChEMBL document CHEMBL1152822, “Genetic analysis of the dihydrofolate reductase-thymidylate synthase gene from geographically diverse isolates of Plasmodium malariae” (Antimicrob Agents Chemother, 2007)
Converted amounts (≈) assume the structure as drawn.

Experiments:
Assay type in all cases: functional, organism-based
Plasmodium vivax = assay: Antiplasmodial activity against Plasmodium vivax
Plasmodium malariae = assay: Antimalarial activity as inhibition of schizont maturation against Plasmodium malariae Thai after 40 - 70 hrs
Plasmodium falciparum = assay: Antiplasmodial activity against Plasmodium falciparum

Question: Which results are given for `CCN(CC)CCCC(C)Nc1ccnc2cc(Cl)ccc12.Cl` (stereo not given)?
Answer: IC50 (Plasmodium vivax): 0.05 µg/mL; IC50 (Plasmodium malariae): 0.0749 µg/mL

Question: Which IC50 (Plasmodium vivax) does the source give for `CCc1nc(N)nc(N)c1-c1ccc(Cl)cc1` [PYRIMETHAMINE] here?
Answer: 0.008 µg/mL (≈ 0.0322 µM)

Question: What about the IC50 (Plasmodium falciparum) of the same molecule?
Answer: 4.08 µg/mL (≈ 16.4 µM)

Question: And the IC50 (Plasmodium malariae)?
Answer: 0.00224 µg/mL (≈ 0.00901 µM)
